# Source: US20170007561A1, “CONTEMPORANEOUS, HETEROGENEOUSLY-ORIENTED, MULTI-TARGETED THERAPEUTIC MODIFICATION AND/OR MODULATION OF DISEASE BY ADMINISTRATION OF SULFUR-CONTAINING, AMINO ACID-SPECIFIC SMALL MOLECULES” (BioNumerik Pharmaceuticals, Inc., priority 2014, published 2017)
# Entries after “also recorded” stand apart in the source; their conditions may differ.
# Columns and labels:
# [1] = biological target: Recombinant human thioredoxin (Trx) (human) (UniProt P10599)
# [2] = biological target: T1, TrxR/Trx system (Homo sapiens, UniProt P10599); assay: TrxR/Trx NADPH oxidation assay; assay type: biochemical; conditions: increasing concentrations of test substance
# T1 construct: purchased Sigma (Trx); American Diagnostica (bovine TrxR)
# T1 sequence (P10599 1-105): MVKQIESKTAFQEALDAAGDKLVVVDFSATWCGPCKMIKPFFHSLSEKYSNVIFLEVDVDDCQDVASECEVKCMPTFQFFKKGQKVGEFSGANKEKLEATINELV
# Excerpt: (Note: error bars are small and may be obscured by the symbols). […] (Note: error bars were omitted but assays were run in quadruplicate with typical errors of 5-8% between individual replicates). […] Panel D: Initial velocity reaction rates corresponding to progress curves shown in Panel C. With time, Trx-mesna and Trx-GSH are converted back to apo-Trx by Trx reductase (see also, FIG. 69, Panel E).
# [3] = biological target: T2, bovine TrxR (Bos taurus, UniProt O62768); assay: TrxR NADPH oxidation assay without Trx (Reaction A); assay type: biochemical; conditions: TrxR alone + NADPH, no Trx; disulfide 0.5 mM
# T2 construct: purchased American Diagnostica
# T2 sequence (O62768 1-499): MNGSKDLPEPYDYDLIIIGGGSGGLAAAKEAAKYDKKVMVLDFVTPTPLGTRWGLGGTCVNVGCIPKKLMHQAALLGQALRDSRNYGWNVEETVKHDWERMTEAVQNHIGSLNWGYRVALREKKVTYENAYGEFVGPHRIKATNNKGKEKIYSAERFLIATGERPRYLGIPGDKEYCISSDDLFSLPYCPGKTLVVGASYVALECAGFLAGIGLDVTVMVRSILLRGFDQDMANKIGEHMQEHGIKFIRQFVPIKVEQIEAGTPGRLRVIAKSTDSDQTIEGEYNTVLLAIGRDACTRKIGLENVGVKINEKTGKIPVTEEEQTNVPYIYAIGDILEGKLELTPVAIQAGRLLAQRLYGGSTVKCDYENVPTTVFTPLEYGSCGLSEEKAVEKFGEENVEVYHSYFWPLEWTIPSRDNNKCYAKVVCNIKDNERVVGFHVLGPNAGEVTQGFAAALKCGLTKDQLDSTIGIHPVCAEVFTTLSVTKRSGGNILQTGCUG
# [4] = tested on: non-small cell lung cancer; conditions: patients greater than or equal to 65 years, carboplatin and paclitaxel chemotherapy; cited from earlier work
# [5] = biological target: insulin
# [6] = tested on: mammalian thioredoxin reductase (TrxR); conditions: cited from earlier work
# [7] = tested on: Trx/TrxR system in human cancer cells; conditions: cited from earlier work
# [8] = tested on: bovine brain microtubule protein (α-/β-tubulin); assay: Microtubule protein polymerization assay (OD350); assay type: biochemical; conditions: for effect on GTP promoted microtubule protein polymerization: mesna, even at 10 mM
# [9] = read-out: Cmax for mesna; 41 g/m^2 Tavocept; cited from earlier work
# [10] = tested on: some cell lines; assay: In vitro cytotoxicity of mesna; conditions: ≦400 μM; unpublished data
# [11] = biological target: T3, human Trx with rat liver TrxR (Homo sapiens, UniProt P10599); assay: TrxR/Trx insulin disulfide reduction assay (NADPH oxidation 340 nm, insulin B chain precipitation 650 nm); assay type: biochemical; conditions: modified Trx purified from free Tavocept or glutathione disulfide
# T3 sequence (P10599 1-105): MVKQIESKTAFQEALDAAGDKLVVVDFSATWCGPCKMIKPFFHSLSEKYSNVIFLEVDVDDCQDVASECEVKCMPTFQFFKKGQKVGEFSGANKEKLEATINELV
molecule,measurement,setting,value
Tavocept-modified Prx (Prx-mesna) (from UniProt Q06830) (enzyme),rate of NADPH oxidation at 340 nm in the Prx assay (% reduction in rate),[1],43
"NC(CCSSCCS(=O)(=O)O)C(=O)O (stereo not shown) [MSSH, mesna-homocysteine disulfide]",NADPH oxidation by TrxR and Trx,[2],increases
same,"NADPH Oxidation, Reaction A",[3],0.0 ± 0.03 nmol/min/mL
"N[C@@H](CCC(=O)N[C@@H](CSSCCS(=O)(=O)O)C(=O)NCC(=O)O)C(=O)O [MSSG, mesna-glutathione disulfide]",NADPH oxidation by TrxR and Trx,[2],increases
same,"NADPH Oxidation, Reaction A",[3],0.3 ± 0.02 nmol/min/mL
Avastin: Avastin (bevacizumab),Survival advantage,[4],did not confer a survival advantage
"NC(CSSCCS(=O)(=O)O)C(=O)O (stereo not shown) [MSSC, mesna-cysteine disulfide]",NADPH oxidation by TrxR and Trx,[2],increases
same,"NADPH Oxidation, Reaction A",[3],0.2 ± 0.03 nmol/min/mL
Recombinant human thioredoxin (Trx) (from UniProt P10599) (enzyme),NADPH Oxidation (nmoles/min/mL) (nmoles/min/mL),[5],18
COc1cccc2c1C(=O)c1c(O)c3c(c(O)c1C2=O)C[C@@](O)(C(=O)CO)C[C@@H]3O[C@H]1C[C@H](N)[C@H](O)[C@H](C)O1 [doxorubicin],Inhibition of TrxR,[6],not inhibitors of TrxR
same,Inhibition of Trx/TrxR system and cellular ribonucleotide reductase activity,[7],inhibit the Trx/TrxR system resulting in a concentration-dependent inhibition of cellular ribonucleotide reductase activity
"O=S(=O)([O-])CCS.[Na+] [mesna, 2-mercapto ethane sulfonate]",effect alone on microtubule protein polymerization,[8]; in the absence of monoaquocisplatin,neither mesna nor cysteine alone (in the absence of monoaquocisplatin) had any effect; also recorded: no detectable effect
same,effect on paclitaxel-induced hyperpolymerization of MTP,[8]; mesna alone,no detectable effect
same,effect on GTP promoted microtubule protein polymerization,[8],did not affect microtubule protein polymerization in an appreciable manner
same,effect on GTP promoted microtubule protein polymerization,[8]; listed as Mesna,does not affect
same,protection against monoaquocisplatin-induced loss of microtubule protein polymerization,"[8]; preincubated with monoaquocisplatin (36 μM), mesna or cysteine 200 μM",prevented the monoaquocisplatin-induced loss; also recorded: able to protect
same,Cmax,[9],~323 µM
same,Cytotoxicity in vitro,[10],can be cytotoxic to some cell lines
CCOC(=O)NC1=C(N2CC2)C(=O)C(NC(=O)OCC)=C(N2CC2)C1=O [Diaziquone],Inhibition of Trx/TrxR system and cellular ribonucleotide reductase activity,[7],inhibit the Trx/TrxR system resulting in a concentration-dependent inhibition of cellular ribonucleotide reductase activity
bovine Trx reductase (TrxR) (from UniProt O62768) (enzyme),NADPH Oxidation (nmoles/min/mL) (nmoles/min/mL),[5],0.3
"Trx-mesna: Trx covalently modified by a Tavocept-derived mesna moiety (protein, Tavocept-derived mesna mixed disulfide on Cys73 and on Cys62 or Cys69 (mass spectroscopy), Trx covalently modified by a Tavocept-derived mesna moiety) MVKQIESKTAFQEALDAAGDKLVVVDFSATWCGPCKMIKPFFHSLSEKYSNVIFLEVDVDDCQDVASECEVKCMPTFQFFKKGQKVGEFSGANKEKLEATINELV",Effect on initial velocity of insulin reduction relative to apo-Trx,[11],inhibitory effect
"Trx-GSH: Trx modified by glutathione after incubation with glutathione disulfide (protein, glutathionylated (cysteine-73 in the control reactions with glutathione), Trx modified by glutathione after incubation with glutathione disulfide) MVKQIESKTAFQEALDAAGDKLVVVDFSATWCGPCKMIKPFFHSLSEKYSNVIFLEVDVDDCQDVASECEVKCMPTFQFFKKGQKVGEFSGANKEKLEATINELV",Effect on initial velocity of insulin reduction relative to apo-Trx,[11],a clear effect on initial velocity
